Reference: PMC9521027 (ACS Omega, 2022)
Positions count from the first letter of the chain named.

Columns and labels:
Format in all cases: cell-based
URAT1 K393R mutant [1] = target: T1, URAT1 K393R mutant (Homo sapiens, UniProt Q96S37, K393R); test: 14C-uric acid uptake assay in transfected HEK293 cells; settings: K393R, HEK293 cells
T1 sequence (Q96S37 1-553 K393R): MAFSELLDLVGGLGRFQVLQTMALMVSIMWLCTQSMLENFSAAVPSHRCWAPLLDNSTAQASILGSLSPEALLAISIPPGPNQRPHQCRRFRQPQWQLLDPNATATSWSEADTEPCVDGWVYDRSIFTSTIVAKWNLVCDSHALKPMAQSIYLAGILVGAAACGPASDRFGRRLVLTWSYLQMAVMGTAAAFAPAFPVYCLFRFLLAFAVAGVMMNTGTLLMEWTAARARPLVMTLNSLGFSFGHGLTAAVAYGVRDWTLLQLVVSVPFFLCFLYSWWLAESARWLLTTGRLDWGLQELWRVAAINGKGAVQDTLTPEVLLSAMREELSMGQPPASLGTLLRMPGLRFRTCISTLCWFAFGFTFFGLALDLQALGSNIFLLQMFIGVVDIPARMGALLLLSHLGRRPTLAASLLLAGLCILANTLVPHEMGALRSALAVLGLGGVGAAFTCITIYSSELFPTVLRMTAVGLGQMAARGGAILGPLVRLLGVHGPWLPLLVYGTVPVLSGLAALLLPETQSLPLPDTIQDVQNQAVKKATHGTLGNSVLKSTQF

URAT1 K393A mutant = target: T2, URAT1 K393A mutant (Homo sapiens, UniProt Q96S37, K393A); test: as above; settings: K393A, HEK293 cells
T2 sequence (Q96S37 1-553 K393A): T1 sequence (Q96S37 1-553 K393R) with R393A

URAT1 K393D mutant = target: T3, URAT1 K393D mutant (Homo sapiens, UniProt Q96S37, K393D); test: as above; settings: K393D, HEK293 cells
T3 sequence (Q96S37 1-553 K393D): T1 sequence (Q96S37 1-553 K393R) with R393D

URAT1 WT = target: T4, URAT1 WT (Homo sapiens, UniProt Q96S37); test: Competitive inhibition test of unlabeled uric acid on 14C-uric acid uptake
T4 sequence (Q96S37 1-553): T1 sequence (Q96S37 1-553 K393R) with R393K

URAT1 K393R mutant [2] = target: T1, URAT1 K393R mutant; test: as above

14C-uric acid transport compared with WT (URAT1 K393R mutant [1]): no reduction
14C-urate transport capacity lost compared with WT (URAT1 K393A mutant): 70–80%
14C-urate transport capacity lost compared with WT (URAT1 K393D mutant): 70–80%
IC50 (URAT1 WT): 115 ± 6.36 µM
IC50 (URAT1 K393R mutant [2]): 113 ± 10.1 µM
Structure (SMILES): O=c1[nH]c(=O)c2[nH]c(=O)[nH]c2[nH]1 [uric acid]
